# Assay results: ChEMBL document CHEMBL1201862, “PubChem BioAssay data set” (2004)
# Active and inactive are the calls of the source.
# What was measured:
# [1] = activation of miR-122 Renilla sensor silencing – cell-based, Huh7 psiCHECK-miR122, Renilla luciferase, cherry-picked, dose response (AID 651956); type: functional;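 further: huh7 hepatoma cells stably carrying a psiCHECK-2 miR-122 sensor plasmid; renilla luciferase signal reporting endogenous miR-122 activity after 48 h compound exposure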
# Beta-lactamase [2] = target: T1, Beta-lactamase (Pseudomonas aeruginosa, UniProt Q79MP6); assay: […] counterscreen for selective VIM-2 inhibitors: dose response biochemical high throughput screening assay to identify inhibitors of IMP-1 metallo-beta-lactamase.
# T1 sequence (Q79MP6 whole entry): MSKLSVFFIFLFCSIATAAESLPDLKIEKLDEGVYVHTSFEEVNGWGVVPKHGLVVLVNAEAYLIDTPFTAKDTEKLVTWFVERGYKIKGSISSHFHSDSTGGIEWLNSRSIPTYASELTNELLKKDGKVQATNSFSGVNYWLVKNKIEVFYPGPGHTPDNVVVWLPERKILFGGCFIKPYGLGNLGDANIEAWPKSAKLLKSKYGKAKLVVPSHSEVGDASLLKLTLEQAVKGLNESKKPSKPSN
# Beta-lactamase [3] = target: T1, Beta-lactamase; assay: inhibition of IMP-1 beta-lactamase activity – biochemical, epi-absorbance, selectivity assay for VIM-2 inhibitor project, dose response (AID 1920)
# Beta-lactamase [4] = target: Beta-lactamase (Salmonella choleraesuis (strain SC-B67), UniProt Q5J463); assay: Epi-absorbance-based counterscreen for selective VIM-2 inhibitors: dose response biochemical high throughput screening assay to identify inhibitors of TEM-1 serine-beta-lactamase.
# Chain of Beta-lactamase (Salmonella choleraesuis (strain SC-B67), UniProt Q5J463) (Q5J463 whole entry): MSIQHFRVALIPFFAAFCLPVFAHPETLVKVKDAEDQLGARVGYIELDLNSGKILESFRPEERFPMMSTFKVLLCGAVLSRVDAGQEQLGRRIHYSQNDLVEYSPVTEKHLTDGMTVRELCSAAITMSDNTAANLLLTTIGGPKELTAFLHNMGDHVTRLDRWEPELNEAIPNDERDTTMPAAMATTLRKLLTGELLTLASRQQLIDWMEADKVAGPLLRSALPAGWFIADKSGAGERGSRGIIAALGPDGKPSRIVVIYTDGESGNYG
# [5] = Luminescence Cell-Based Dose Response HTS to Identify Activators of Luciferase Translation or Activity in H4 […] Cells. [Related pubchem assays: 1829 (Project Summary), 1814 (Primary HTS)]; type: functional
# Jurkat = assay: SAR Analysis of small molecule inhibitors of T-cell specific antigen receptor-induced NF-kB activation in a Jurkat cell line using a luminescence assay - Set 2. [Related pubchem assays (depositor defined):AID435003, AID435012, AID465]; type: functional, cell-based; conditions: Homo sapiens
# [6] = Luminescence Cell-Based Dose Confirmation HTS to Identify Activators of 5'UTR Stem-Loop Driven Alpha-Synuclein mRNA Translation in H4 Neuroglioblastoma Cells. [Related pubchem assays: 1829 (Project Summary), 1814 (Primary HTS)]; type: functional
# Vero [7] = assay: cells; type: functional, cell-based; conditions: Chlorocebus sabaeus
# H4 = assay: Luminescence Cell-Based Dose Response HTS to Identify Activators of 5'UTR Stem-Loop Driven Prion Protein mRNA Translation in H4 Neuroglioblastoma Cells. [Related pubchem assays: 1829 (Project Summary), 1814 (Primary HTS)]; type: functional; conditions: Homo sapiens
# [8] = Luminescence Cell-Based Dose Retest to Confirm Inhibitors of Cancer Stem Cells. [Related pubchem assays (depositor defined):AID2717, AID2721]; type: functional; conditions: Homo sapiens
# HEK293 [9] = assay: SAR Analysis of small molecule inhibitors of T-cell specific antigen receptor-induced NF-kB activation in a HEK-293T cell line using a luminescence assay - Set 2. [Related pubchem assays (depositor defined):AID435003, AID435012, AID489026]; type: functional, cell-based; conditions: Homo sapiens
# [10] = Counterscreen for activators of the function of SWI/SNF related, matrix associated, actin dependent regulator of chromatin, subfamily a, member 2 (SMARCA2, BRM): Luminescence-based cell-based high throughput dose response assay to identify non-selective compounds using the VP16 reporter assay.; type: functional
# Vero [11] = assay: cells; type: functional; conditions: Chlorocebus sabaeus
# HEK293 [12] = assay: HEK293T cell viability loss, resazurin readout – resazurin fluorescence, cytotoxicity control for NF-kB activator project, SAR follow-up (AID 493251); type: functional, cell-based; conditions: Homo sapiens
# [13] = target: SWI/SNF-related matrix-associated actin-dependent regulator of chromatin subfamily A member 2 (Homo sapiens, UniProt P51531); assay: Luminescence-based cell-based high throughput dose response assay to identify activators of the function of SWI/SNF related, matrix associated, actin dependent regulator of chromatin, subfamily a, member 2 (SMARCA2, BRM).; type: functional
# [14] = target: Neurotensin receptor type 1 (Homo sapiens, UniProt P30989); type: functional;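 further: Image-based confirmatory dose-response assay measuring agonist activity at NTR1; NTR1-expressing U2OS osteosarcoma cells imaged for beta-arrestin GFP spot formation; agonist potency where compounds increase beta-arrestin recruitment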
# Chain of Neurotensin receptor type 1 (P30989 whole entry): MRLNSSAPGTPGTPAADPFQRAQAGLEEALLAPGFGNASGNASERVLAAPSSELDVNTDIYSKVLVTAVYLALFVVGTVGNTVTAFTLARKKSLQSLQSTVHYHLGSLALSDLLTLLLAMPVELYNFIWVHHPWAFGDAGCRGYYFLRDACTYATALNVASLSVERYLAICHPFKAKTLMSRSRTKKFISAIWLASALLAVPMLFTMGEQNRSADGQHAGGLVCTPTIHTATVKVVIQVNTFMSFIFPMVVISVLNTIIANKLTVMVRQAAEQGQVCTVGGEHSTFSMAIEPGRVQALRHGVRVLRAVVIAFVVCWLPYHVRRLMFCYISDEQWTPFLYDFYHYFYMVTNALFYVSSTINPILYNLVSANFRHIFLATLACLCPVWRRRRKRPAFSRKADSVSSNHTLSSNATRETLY
# [15] = target: Heat shock protein HSP 90-alpha (Homo sapiens, UniProt P07900); type: functional, organism-based
# [16] = target: T2, Serine/threonine-protein phosphatase (Candida dubliniensis (strain CD36 / CBS 7987 / NCPF 3949 / NRRLY-17841) (Yeast), UniProt B9W6M3); assay: blockers of CaCl2-induced CDRE-lacZ signaling – S. cerevisiae, luminescence, secondary, dose response (AID 2388); type: functional, cell-based;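 further: yeast reporter cells carrying a calcineurin-responsive lacZ construct stimulated with calcium chloride; luminescent beta-galactosidase reporter signal in whole cells rather than isolated phosphatase activity; potency for inhibition where a drop in reporter signal means calcineurin blockade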
# T2 sequence (B9W6M3 whole entry): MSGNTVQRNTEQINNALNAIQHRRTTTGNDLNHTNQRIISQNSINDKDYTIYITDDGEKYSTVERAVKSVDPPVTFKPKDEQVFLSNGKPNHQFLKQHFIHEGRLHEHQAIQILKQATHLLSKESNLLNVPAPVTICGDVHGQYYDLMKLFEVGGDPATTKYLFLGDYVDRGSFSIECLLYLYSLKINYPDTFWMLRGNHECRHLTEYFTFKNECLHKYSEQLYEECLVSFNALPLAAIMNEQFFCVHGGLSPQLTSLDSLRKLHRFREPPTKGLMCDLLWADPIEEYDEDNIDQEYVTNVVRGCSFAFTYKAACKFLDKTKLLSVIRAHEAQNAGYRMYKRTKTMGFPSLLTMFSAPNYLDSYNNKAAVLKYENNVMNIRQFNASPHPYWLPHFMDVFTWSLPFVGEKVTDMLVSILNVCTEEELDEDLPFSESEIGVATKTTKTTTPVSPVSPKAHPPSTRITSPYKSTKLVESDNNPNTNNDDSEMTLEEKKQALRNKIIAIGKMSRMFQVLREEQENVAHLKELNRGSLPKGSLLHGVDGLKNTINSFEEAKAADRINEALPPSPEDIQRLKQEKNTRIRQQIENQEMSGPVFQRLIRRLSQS
# [17] = NIH-3T3 fibroblast cytotoxicity, dose response, cytotoxicity control, cell-based, fluorescence, Alamar Blue, secondary assay (AID 2327); type: functional;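 further: NIH-3T3 mouse fibroblasts cultured with fluconazole at 8 µg/mL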
# [18] = Fluorescence-based cell-based high throughput dose response assay for inhibitors of the interaction of nucleotide-binding oligomerization domain containing 2 (NOD2) and the receptor-interacting serine-threonine kinase 2 (RIPK2).; type: functional; conditions: Homo sapiens
# [19] = fluconazole-exposed Candida albicans growth modulators – fluorescence, retest, confirmation (AID 2467); type: functional, cell-based
# [20] = target: Sphingosine 1-phosphate receptor 1 (Homo sapiens, UniProt P21453); type: functional;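 further: Tango beta-arrestin reporter U2OS cells stimulated with S1P near its EC80; inhibitor potency meaning antagonism of receptor activation by the natural agonist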
# Chain of Sphingosine 1-phosphate receptor 1 (P21453 whole entry): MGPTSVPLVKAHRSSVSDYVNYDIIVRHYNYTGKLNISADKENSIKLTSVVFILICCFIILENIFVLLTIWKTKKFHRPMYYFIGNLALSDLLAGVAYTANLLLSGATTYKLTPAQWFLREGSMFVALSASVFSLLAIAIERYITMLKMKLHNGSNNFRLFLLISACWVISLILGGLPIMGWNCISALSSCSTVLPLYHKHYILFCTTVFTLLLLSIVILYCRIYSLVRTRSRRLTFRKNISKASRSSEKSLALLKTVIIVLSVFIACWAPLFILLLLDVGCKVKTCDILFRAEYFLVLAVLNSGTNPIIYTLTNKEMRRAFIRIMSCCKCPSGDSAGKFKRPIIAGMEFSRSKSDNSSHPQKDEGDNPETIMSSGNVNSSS
# [21] = target: T3, Sphingosine 1-phosphate receptor 4 (Homo sapiens, UniProt O95977); assay: Fluorescence dose response cell-based high throughput screening assay for antagonists of the Sphingosine 1-Phosphate Receptor 4 (S1P4). [Related pubchem assays: 1524 (Confirmation in triplicates.), 1510 (Primary screen.)]; type: functional
# T3 sequence (O95977 whole entry): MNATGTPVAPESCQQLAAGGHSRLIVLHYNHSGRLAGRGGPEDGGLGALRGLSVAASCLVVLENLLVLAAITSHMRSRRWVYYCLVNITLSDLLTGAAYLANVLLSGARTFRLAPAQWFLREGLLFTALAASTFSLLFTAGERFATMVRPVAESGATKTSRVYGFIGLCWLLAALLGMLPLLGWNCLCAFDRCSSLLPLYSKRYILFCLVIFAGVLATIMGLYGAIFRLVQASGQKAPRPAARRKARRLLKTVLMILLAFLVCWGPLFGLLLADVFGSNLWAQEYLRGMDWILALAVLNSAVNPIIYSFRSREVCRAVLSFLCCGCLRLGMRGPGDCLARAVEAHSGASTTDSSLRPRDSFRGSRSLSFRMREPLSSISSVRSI
# [22] = microbe, parasite or virus in culture; type: functional; conditions: Mycobacterium tuberculosis
# [23] = target: T2, Serine/threonine-protein phosphatase; assay: Fluorescence Cell-Based Secondary Assay to Identify Inhibitors of Calcineurin. [Related pubchem assays (depositor defined):AID1979, AID2007]; type: functional
# [24] = target: ATP-dependent molecular chaperone HSP82 (Candida albicans (strain WO-1) (Yeast), UniProt C4YTQ8); assay: steroid-induced GRE reporter decrease in yeast – S. cerevisiae, luminescence, Hsp90 inhibitor project, dose response (AID 2400); type: functional, cell-based;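 further: beta-galactosidase luminescence from glucocorticoid response element reporter as proxy for Hsp90 function; inhibitor potency where signal loss means Hsp90 inhibition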
# Chain of ATP-dependent molecular chaperone HSP82 (C4YTQ8 whole entry): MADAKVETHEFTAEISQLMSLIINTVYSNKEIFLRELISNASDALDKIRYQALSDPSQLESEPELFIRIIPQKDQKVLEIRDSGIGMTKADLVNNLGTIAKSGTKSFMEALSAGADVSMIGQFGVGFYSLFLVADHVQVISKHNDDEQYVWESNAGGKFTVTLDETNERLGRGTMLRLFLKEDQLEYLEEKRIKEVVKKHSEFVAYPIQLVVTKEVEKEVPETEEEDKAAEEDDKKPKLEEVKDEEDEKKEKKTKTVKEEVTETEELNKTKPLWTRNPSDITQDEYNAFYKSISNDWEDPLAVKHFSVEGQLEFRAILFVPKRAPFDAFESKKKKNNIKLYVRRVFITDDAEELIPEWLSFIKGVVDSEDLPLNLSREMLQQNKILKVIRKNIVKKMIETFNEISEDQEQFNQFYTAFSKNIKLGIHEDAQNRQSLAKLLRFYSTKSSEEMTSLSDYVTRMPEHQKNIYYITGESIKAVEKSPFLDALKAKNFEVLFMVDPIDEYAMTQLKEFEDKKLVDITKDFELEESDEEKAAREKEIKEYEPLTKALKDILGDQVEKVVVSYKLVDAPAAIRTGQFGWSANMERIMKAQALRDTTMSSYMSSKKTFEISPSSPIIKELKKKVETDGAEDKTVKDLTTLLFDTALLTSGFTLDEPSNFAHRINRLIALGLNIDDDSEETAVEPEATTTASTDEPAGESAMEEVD
# [25] = target: T4, Beta-2 adrenergic receptor (Homo sapiens, UniProt P07550); assay: ADRB2 activation measured by internalization – cell-based, FAP fluorogen, flow cytometry, cherry pick 1, dose response (AID 588763); type: functional
# T4 sequence (P07550 whole entry): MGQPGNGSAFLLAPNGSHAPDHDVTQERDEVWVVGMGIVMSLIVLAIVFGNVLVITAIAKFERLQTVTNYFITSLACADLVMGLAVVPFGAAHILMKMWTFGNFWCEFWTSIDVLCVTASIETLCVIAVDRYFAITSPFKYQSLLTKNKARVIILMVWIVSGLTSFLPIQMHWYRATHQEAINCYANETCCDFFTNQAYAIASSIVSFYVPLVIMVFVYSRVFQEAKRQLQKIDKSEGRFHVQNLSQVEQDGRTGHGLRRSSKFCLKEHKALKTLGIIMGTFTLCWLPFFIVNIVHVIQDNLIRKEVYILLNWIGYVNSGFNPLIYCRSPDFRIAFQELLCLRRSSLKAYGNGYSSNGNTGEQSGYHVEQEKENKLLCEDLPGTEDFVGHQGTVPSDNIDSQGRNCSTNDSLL
# [26] = target: T4, Beta-2 adrenergic receptor; assay: Dose response for HTS for Beta-2AR agonists via FAP method from Powderset1.; type: functional
# cells [27] = type: functional, cell-based
# cells [28] = type: functional, cell-based; remark: listed apart in the source
# [29] = Counterscreen for IDE inhibitors: Luminescence-based cell-based high throughput dose response assay to identify compounds that are cytotoxic to HEK cells. [Related pubchem assays: 434962 (Primary screen (IDE inhibitors in singlicate)), 449730 (Counterscreen (Cytotoxicity in triplicate)), 435028 (Confirmation (IDE inhibitors in triplicate)) …; type: functional; conditions: HEK293
# Insulin-degrading enzyme = target: T5, Insulin-degrading enzyme (Homo sapiens, UniProt P14735); assay: Dose Response: Fluorescence polarization-based cell-based high throughput dose response assay for inhibitors of insulin-degrading enzyme (IDE). [Related pubchem assays: 434962 (Primary screen (IDE inhibitors in singlicate)), 449730 (Counterscreen (Cytotoxicity in triplicate)), 435028 (Confirmation (IDE inhibitors in triplicate)), 434984 (Summary …; type: functional
# T5 sequence (P14735 whole entry): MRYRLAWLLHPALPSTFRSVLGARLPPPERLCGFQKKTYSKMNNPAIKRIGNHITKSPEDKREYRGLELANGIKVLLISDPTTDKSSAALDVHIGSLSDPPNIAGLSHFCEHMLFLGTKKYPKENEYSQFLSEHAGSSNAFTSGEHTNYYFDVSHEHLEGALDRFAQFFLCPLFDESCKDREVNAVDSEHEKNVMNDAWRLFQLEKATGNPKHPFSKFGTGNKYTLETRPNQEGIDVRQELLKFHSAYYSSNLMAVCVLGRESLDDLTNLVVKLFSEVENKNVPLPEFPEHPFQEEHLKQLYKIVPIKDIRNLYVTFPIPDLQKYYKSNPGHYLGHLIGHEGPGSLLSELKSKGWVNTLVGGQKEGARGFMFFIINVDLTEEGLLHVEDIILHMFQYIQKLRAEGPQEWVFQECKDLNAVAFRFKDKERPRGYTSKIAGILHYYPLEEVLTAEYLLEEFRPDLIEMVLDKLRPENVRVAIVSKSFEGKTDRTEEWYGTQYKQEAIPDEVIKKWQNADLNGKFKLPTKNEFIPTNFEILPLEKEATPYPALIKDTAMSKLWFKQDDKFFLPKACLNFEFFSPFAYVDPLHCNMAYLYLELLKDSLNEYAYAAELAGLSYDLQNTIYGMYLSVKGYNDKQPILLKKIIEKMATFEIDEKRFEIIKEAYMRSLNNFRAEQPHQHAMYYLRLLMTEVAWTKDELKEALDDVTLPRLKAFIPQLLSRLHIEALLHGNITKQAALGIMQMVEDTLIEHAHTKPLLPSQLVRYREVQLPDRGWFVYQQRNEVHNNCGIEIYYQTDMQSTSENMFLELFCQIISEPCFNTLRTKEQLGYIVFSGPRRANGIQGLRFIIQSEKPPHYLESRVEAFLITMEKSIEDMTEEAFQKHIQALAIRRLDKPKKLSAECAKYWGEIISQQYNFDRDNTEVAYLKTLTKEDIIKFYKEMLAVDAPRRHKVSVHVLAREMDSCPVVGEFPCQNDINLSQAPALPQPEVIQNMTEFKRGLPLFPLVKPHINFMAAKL
# [30] = target: Hepatocyte nuclear factor 4-alpha (Homo sapiens, UniProt P41235); type: functional, cell-based;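 further: biochemical luminescence-based dose-response counterscreen measuring inhibition of HNF4 dimerization, run alongside a screen for blockers of ABHD5–perilipin-5 interaction; split luciferase complementation of HNF4 fusion proteins in cell lysate measuring dimerization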
# Chain of Hepatocyte nuclear factor 4-alpha (P41235 whole entry, the tested form may be a part): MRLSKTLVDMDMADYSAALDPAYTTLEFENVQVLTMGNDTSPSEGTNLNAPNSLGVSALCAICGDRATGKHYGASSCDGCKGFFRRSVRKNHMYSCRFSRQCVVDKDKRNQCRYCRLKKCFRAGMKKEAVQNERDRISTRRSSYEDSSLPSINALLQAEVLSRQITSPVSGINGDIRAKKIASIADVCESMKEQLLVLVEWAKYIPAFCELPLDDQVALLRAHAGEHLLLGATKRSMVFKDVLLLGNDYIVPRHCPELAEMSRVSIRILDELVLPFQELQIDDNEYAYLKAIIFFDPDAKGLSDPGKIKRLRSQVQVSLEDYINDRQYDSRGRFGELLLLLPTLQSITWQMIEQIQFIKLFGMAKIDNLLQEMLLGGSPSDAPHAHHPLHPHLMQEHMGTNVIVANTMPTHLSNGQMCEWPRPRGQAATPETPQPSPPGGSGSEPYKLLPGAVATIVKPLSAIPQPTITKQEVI
# NS3 = NS3 (Hepatitis C virus, UniProt A3EZJ3); assay: PubChem AID 2173; parameters: species or system Hepacivirus hominis
# Chain of NS3 (A3EZJ3 whole entry): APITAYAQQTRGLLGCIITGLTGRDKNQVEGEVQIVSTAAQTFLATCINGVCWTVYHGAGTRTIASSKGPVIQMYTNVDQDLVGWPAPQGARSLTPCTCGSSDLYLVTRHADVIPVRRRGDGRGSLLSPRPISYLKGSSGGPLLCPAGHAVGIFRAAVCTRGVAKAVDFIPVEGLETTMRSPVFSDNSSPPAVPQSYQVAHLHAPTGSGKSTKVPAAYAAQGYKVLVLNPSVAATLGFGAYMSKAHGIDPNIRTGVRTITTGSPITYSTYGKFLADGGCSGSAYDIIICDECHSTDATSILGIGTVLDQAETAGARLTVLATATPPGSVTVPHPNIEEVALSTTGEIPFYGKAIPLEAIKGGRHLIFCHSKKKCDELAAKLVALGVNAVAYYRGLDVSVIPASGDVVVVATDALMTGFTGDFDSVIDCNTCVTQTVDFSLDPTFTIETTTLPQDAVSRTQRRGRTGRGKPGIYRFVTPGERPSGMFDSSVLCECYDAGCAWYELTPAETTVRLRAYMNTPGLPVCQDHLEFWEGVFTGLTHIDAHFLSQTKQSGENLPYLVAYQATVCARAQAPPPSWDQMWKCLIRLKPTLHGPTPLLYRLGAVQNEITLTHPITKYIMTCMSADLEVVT
# [31] = target: T6, Heat shock factor protein 1 (Mus musculus, UniProt P38532); assay: enhancement of HSF1-driven luciferase signal – cell-based, NIH3T3, luminescence, dose retest, confirmation (AID 435004); type: functional;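 further: stress induced by proteasome inhibitor MG132 added 30 min after compound; luciferase reporter driven by HSF1 response element in NIH3T3 cells; actives raise luminescence as potentiators of the MG132 stress response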
# T6 sequence (P38532 whole entry): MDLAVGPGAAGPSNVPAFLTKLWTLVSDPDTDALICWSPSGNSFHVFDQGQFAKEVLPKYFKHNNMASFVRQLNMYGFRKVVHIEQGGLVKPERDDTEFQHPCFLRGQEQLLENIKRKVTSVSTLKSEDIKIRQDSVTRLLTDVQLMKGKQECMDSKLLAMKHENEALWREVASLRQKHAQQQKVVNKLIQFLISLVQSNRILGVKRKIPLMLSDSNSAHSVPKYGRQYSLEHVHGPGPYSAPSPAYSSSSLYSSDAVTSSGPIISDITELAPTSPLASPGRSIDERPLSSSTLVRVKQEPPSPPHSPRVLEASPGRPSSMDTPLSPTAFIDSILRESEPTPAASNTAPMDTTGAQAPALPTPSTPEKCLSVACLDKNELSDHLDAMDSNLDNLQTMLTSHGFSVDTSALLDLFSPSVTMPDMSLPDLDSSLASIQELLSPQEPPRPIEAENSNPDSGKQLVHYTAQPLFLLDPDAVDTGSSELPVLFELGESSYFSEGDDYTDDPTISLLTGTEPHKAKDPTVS
smiles,measurement,setting,value
CC(C)C#Cc1ccc2c(c1)O[C@H](CN(C)C(=O)c1ccncc1)[C@H](C)CN([C@H](C)CO)S2(=O)=O,AC50,[1],3.04 µM (active)
COCC(=O)Nc1nnc(SCC(=O)NCc2cccs2)s1,IC50,Beta-lactamase [2],> 59.6 µM (inactive)
same,IC50,Beta-lactamase [3],> 59.6 µM (inactive)
same,IC50,Beta-lactamase [4],> 59.6 µM (inactive)
CC(=O)c1ccc(NC(=O)c2ccc([N+](=O)[O-])o2)cc1,EC50,[5],> 120 µM (not active)
same,IC50,Jurkat,35.2 µM (inactive)
same,EC50,[6],> 120 µM (not active)
same,IC50,Vero [7],> 25 µM (active)
same,EC50,H4,> 120 µM (not active)
same,AC50,[8],4.95 µM (active)
same,IC50,HEK293 [9],38.9 µM (inactive)
same,EC50,[10],> 91.1 µM (inactive)
same,CC50,Vero [11],14.3 µM (active)
same,IC50,HEK293 [12],51.8 µM (inactive)
same,EC50,[13],> 91.1 µM (inactive)
CCc1ccc2c(c1)/C(=C/C(=O)c1cccs1)C(=O)N2,EC50,[14],17.7 µM (active)
same,AC50,[15],4.18 µM (active)
same,EC50,[16],> 180 µM (inactive)
same,EC50,[17],> 150 µM (inactive)
same,IC50,[18],4.53 µM (active)
same,EC50,[19],6.49 µM (active)
same,IC50,[20],20.9 µM (not active)
same,IC50,[21],1.46 µM (active)
same,CC50,[22],7.23 µM (active)
same,EC50,[23],5.99 µM (active)
same,EC50,[24],1.25 µM (active)
O=C(c1ccc(OC2CCN(Cc3ccc(F)cc3)CC2)cc1)N1CCCC1,EC50,[25],1.6 µM (active)
same,EC50,[26],5.28 µM (active)
same,EC50,cells [27],> 350 µM (not active)
same,EC50,cells [28],> 350 µM (not active)
Cc1ccc(C(=O)/C=C/c2cc(Br)cc(Br)c2O)o1,IC50,[29],19.8 µM (not active)
same,IC50,Insulin-degrading enzyme,21 µM (not active)
same,AC50,[8],3.09 µM (active)
same,IC50,[30],11 µM (inactive)
same,IC50,NS3,9.14 µM (active)
same,EC50,[31],16.8 µM (active)
